Converted amounts (≈) assume the structure as drawn. Read-outs that look alike come from different tables or passages of the source.
Assays:
[1] = biological target: T1, S. aureus RNase P (RnpA + rnpB) (Staphylococcus aureus, UniProt P0A0H5); assay: RnpA-dependent RNase P in vitro ptRNA^Tyr processing assay; format: biochemical
T1 construct: hexahistidine (His6) (N); made in house; host or cells: E. coli BL21 (DE3), plasmid pEXP5-nt
T1 sequence (P0A0H5 1-117): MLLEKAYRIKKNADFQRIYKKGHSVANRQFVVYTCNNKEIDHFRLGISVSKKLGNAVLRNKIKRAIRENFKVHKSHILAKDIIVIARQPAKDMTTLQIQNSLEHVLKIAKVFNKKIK
Method: S. aureus RNase P activity assays were performed according to conditions described previously. Briefly, ptRNA^Tyr and rnpB RNA species were first denatured by heating to 95 °C for 5 min then slow cooled to room temperature. RNase P was reconstituted by mixing an equal molar ratio of rnpB and RnpA for 15 min at 37 °C. Precursor tRNA processing inhibition reactions were performed by mixing 1.25 pmol of reconstituted RNase P (RnpA + rnpB) with an equal volume of 2× low salt buffer (50 mM Tris-HCl pH 8.0, 5 mM MgCl2) in the presence of DMSO (negative control) or the indicated compound (≤500 µM) and incubated for 5 min at 37 °C. 5 pmol ptRNA^Tyr was added and the mixture was incubated at 37 °C 15 min. Reactions were stopped by adding 2× RNA loading dye and heating at 65 °C for 10 min. Each sample was electrophoresed in a 7 M urea/8% polyacrylamide gel then stained with ethidium bromide. The Biorad EZ Gel Doc imaging system was used to visualize the RNA and relative abundance of the mature tRNA^Tyr band (% processing) in the negative control or in samples containing the indicated compounds and analyzed using Biorad Image Lab densitometry software. The inhibitory activity of the indicated compounds were calculated as a % inhibition using the following equation: […].
To assess IC50, % RNase P processing inhibition was plotted against compound concentration and a linear best fit equation was generated to calculate the IC50.

S. aureus RnpA = biological target: T2, S. aureus RnpA (Staphylococcus aureus, UniProt P0A0H5); assay: RnpA-mediated in vitro spa mRNA degradation assay; format: biochemical
T2 construct: hexahistidine (His6) (N); made in house; host or cells: E. coli BL21 (DE3), plasmid pEXP5-nt
T2 sequence (P0A0H5 1-117): T1 sequence (P0A0H5 1-117)
Method: RnpA-mediated RNA degradation assays were performed as previously described. Briefly, 1 pmol of spa mRNA was incubated with 5 pmol RnpA at 37 °C for 30 min in reaction buffer (50 mM Tris-HCl pH 8.0, 2 mM NaCl, 2 mM MgCl2) in the absence or presence of the indicated compound (≤500 µM). The inhibitory effects of the test compounds were calculated using Biorad ImageLab densitometry software to measure the signal intensity of the spa band in the negative control (spa alone), positive control (RnpA + spa + DMSO), and experimental samples (RnpA + spa + test compound) separated on a 1.2% formaldehyde-agarose gel. Background signal from the positive control sample sometimes resulted due to incomplete degradation of transcripts. Thus, the signal intensity of the positive control was taken into account when calculating the percent inhibition. The raw signals from the positive (+RnpA) and negative (-RnpA) controls were converted into percentage, by normalizing the positive control (+RnpA) signal to 0% RnpA inhibition and the negative control (-RnpA) to 100% RnpA inhibition. Similarly, the raw signals from the test compounds were reported as percent RnpA inhibition using the following equation: [(experimental−positive control)/(negative control−positive control)] × 100. […] To assess IC50, % RnpA degradation inhibition was plotted against compound concentration; a linear best fit equation was generated and utilized to calculate the IC50.

S. aureus UAMS-1 = assay: Minimum inhibitory concentration (MIC) testing; format: cell-based, Staphylococcus aureus
Method: Minimum inhibitory concentration (MIC) testing was performed using to Clinical & Laboratory Standards Institute (CLSI) guidelines. Accordingly, individual wells of a 96-well microtiter plate were inoculated with 10^4 colony forming units (CFU) of S. aureus UAMS-1 containing two-fold increasing concentrations (0 to 256 μg·mL^−1) of the indicated antibiotic or putative RnpA inhibitor compound, and incubated at 37 °C for 16 h in MHB. The MIC was defined as the lowest concentration of compound in which there was no visible bacterial growth in the well.

HepG2 cells = assay: MTT human cell cytotoxicity testing; format: cell-based; conditions: 4× MIC exposure for 24 h; for MTT = % HepG2 cell survival: SAR figures; for % HepG2 Cell Survival: MTT
Method: Human HepG2 hepatocytes were seeded in individual wells of a 96-well cell-culture treated microtiter plate at a concentration of 1 × 10^5 cells per well and incubated in Dulbecco’s Modified Eagle Medium (DMEM) supplemented with 10% fetal bovine serum at 37 °C with 5% carbon dioxide overnight. Cells were then treated with DMSO (negative control) or the indicated agent for 24 h. MTT Cell Proliferation Assay Kits were used to assess viability according to the manufacturer’s recommendations (American Type Culture Collection; Manassas, VA, USA).

[2] = SAR figures, in vitro ptRNA^Tyr processing, read-out: pIC50 = processing IC50 (converted)
[3] = SAR figures, read-out: dIC50 = degradation IC50
[4] = Staphylococcus aureus, UAMS1, 16 h, S. aureus UAMS-1, 16 h in MHB, read-out: MIC
[5] = Staphylococcus aureus, UAMS1, SAR figures, S. aureus UAMS-1, read-out: MIC
[6] = in vitro ptRNA^Tyr processing, read-out: Processing IC50
[7] = Table S1, mupirocin synergy screening initial hits, read-out: processing IC50
[8] = Table S1, mupirocin synergy screening initial hits

| SMILES | IC50 [1, 2] [µM] | IC50 (S. aureus RnpA; [3]) [µM] | MIC (S. aureus UAMS-1; [4]) [µg/mL] | MIC (S. aureus UAMS-1; [5]) [µg/mL] | MTT = % HepG2 cell survival (HepG2 cells) [%] | IC50 (S. aureus RnpA; read-out: Degradation IC50) [µM] | IC50 [1, 6] [µM] | further results |
| --- | --- | --- | --- | --- | --- | --- | --- | --- |
| CC1CCN(C(=O)Nc2cccc(Cl)c2)CC1 [JC1b] | > 500 | > 500 | > 256 | > 256 |  |  |  |  |
| CC1CCCCN1C(=O)Nc1ccccc1 (stereo not shown) [JC2b] | > 500 | > 500 | > 256 | > 256 |  |  |  |  |
| Cc1ccc(NC(=O)N2CCCCC2C)cc1Cl (stereo not shown) [JC2c] | > 500 | > 500 | > 256 | > 256 |  |  |  |  |
| CCC1CCCCN1C(=O)Nc1ccccc1 (stereo not shown) [JC3c] | > 500 | > 500 | > 256 | > 256 |  |  |  |  |
| CCC1CCCCN1C(=O)Nc1ccc(Br)cc1 (stereo not shown) [JC3e] | > 500 | > 500 | > 256 | > 256 |  |  |  |  |
| CCC1CCCCN1C(=O)Nc1cccc(C)c1 (stereo not shown) [JC3f] | > 500 | > 500 | > 256 | > 256 |  |  |  |  |
| O=C(Nc1cc(Cl)cc(Cl)c1)N1CCCCC1 [JC4] | 300 |  | 256 (≈ 937 µM) | 256 (≈ 937 µM) | 71.4 | > 500 |  |  |
| O=C(Nc1cc(Cl)cc(Cl)c1)N1CCCCCC1 [JC5] |  |  | 128 (≈ 446 µM) | 128 (≈ 446 µM) | 65.3 | 200 | 225 |  |
| O=C(Nc1cccc(Cl)c1)N1CCCCCC1 [JC5b] | > 500 | > 500 | > 256 | > 256 |  |  |  |  |
| O=C(Nc1ccc(Cl)cc1)N1CCCCCC1 [JC5c] | > 500 | > 500 | > 256 | > 256 |  |  |  |  |
| CN1CCN(C(=O)Nc2cc(Cl)cc(Cl)c2)CC1 [JC6] | > 500 | > 500 | 8 (≈ 27.8 µM) | 8 (≈ 27.8 µM) | 61.6 | ≥ 450 | ≥ 450 |  |
| CCN1CCN(C(=O)Nc2cc(Cl)cc(Cl)c2)CC1 [JC7] | > 500 | > 500 | 8 (≈ 26.5 µM) | 8 (≈ 26.5 µM) | 75.7 | ≥ 450 | ≥ 450 |  |
| CCCN1CCN(C(=O)Nc2cc(Cl)cc(Cl)c2)CC1 [JC8] | > 500 | 450 | 1 (≈ 3.16 µM) | 1 (≈ 3.16 µM) | 109 | ≥ 450 | ≥ 450 | % HepG2 Cell Survival (HepG2 cells): 109.2% |
| CC1CN(C(=O)Nc2cc(Cl)cc(Cl)c2)CC(C)O1 (stereo not shown) [JC9] |  |  |  | 32 (≈ 106 µM) | 82.5 | > 500 | > 500 |  |
| O=C(Nc1ccc(Cl)cc1)c1c(NC(=O)C(F)(F)F)sc2c1CCCCC2 [JR1] |  |  | 0.25 to 1 (≈ 0.6 to 2.4 µM) | 0.5 (≈ 1.2 µM) | 80.6 | 62.5 | 12 | % HepG2 Cell Survival (HepG2 cells; listed as ST016037): 81%; MIC (S. aureus UAMS-1; S. aureus UAMS-1, 16 h in MHB, listed as ST016037): 0.5 µg/mL (≈ 1.2 µM); MIC (S. aureus UAMS-1; Staphylococcus aureus, UAMS1, 16 h, Table S1, mupirocin synergy screening initial hits, read-out: MIC): 0.5 µg/mL |
| CC(=O)Nc1sc2c(c1C(=O)Nc1ccc(Cl)cc1)CCCCC2 [JR1b] |  |  | > 256 | > 256 | 84.9 | > 250 | 115 |  |
| Nc1sc2c(c1C(=O)Nc1ccc(Cl)cc1)CCCCC2 [JR1c] |  |  | 64 (≈ 199 µM) | 64 (≈ 199 µM) | 54.5 | 175 | 25 |  |
| O=C(Nc1ccccc1Cl)c1c(NC(=O)C(F)(F)F)sc2c1CCCCC2 [JR2] | 2 | 100 | 0.25 to 1 (≈ 0.6 to 2.4 µM) | 0.5 (≈ 1.2 µM) | 85.3 |  |  |  |
| O=C(Nc1ccccc1Cl)c1c(NC(=O)C(F)(F)F)sc2c1CCCC2 [JR2b] |  | 62 | > 256 | > 256 | 59.5 |  | 100 |  |
| O=C(Nc1cccc(Cl)c1)c1c(NC(=O)C(F)(F)F)sc2c1CCCCC2 [JR3] | 7 | 25 | 0.25 to 1 (≈ 0.6 to 2.4 µM) | 0.25 (≈ 0.6 µM) | 90.4 |  |  |  |
| O=C(Nc1cccc(Cl)c1)c1c(NC(=O)C(F)(F)F)sc2c1CCCC2 [JR3b] | 6 | 35 |  | 0.5 (≈ 1.24 µM) | 103.7 |  |  |  |
| O=C(Nc1ccccc1)c1c(NC(=O)C(F)(F)F)sc2c1CCCCC2 [JR4] | 10 | 63 |  |  |  |  |  |  |
| Cc1ccc(NC(=O)c2c(NC(=O)C(F)(F)F)sc3c2CCCCC3)cc1 [JR5] | 80 | 115 | 0.25 to 1 (≈ 0.631 to 2.52 µM) | 0.25 (≈ 0.631 µM) | 82.8 |  |  |  |
| COc1ccc(NC(=O)c2c(NC(=O)C(F)(F)F)sc3c2CCCCC3)cc1 [JR6] | 22 |  | 0.25 to 1 (≈ 0.606 to 2.42 µM) | 1 (≈ 2.42 µM) | 53.3 | > 250 |  |  |
| O=S(=O)(Nc1cccc2cccnc12)c1ccccc1 [compound 5175130] |  |  |  |  |  |  |  | IC50 [1, 7]: > 500 µM; MIC (S. aureus UAMS-1; [8]): 14.22 µg/mL |
| c1ccc(Nc2nc(-c3ccccn3)cs2)nc1 [compound 5625000] |  |  |  |  |  |  |  | IC50 [1, 7]: > 500 µM; MIC (S. aureus UAMS-1; [8]): 1.59 µg/mL |
| Cc1cccc(/C=C/c2ccc3cccc(O)c3n2)c1O [compound 6634438] |  |  |  |  |  |  |  | IC50 [1, 7]: < 62.5 µM; MIC (S. aureus UAMS-1; [8]): 10.40 µg/mL |
| C/C(=C\C(=O)OCCCCCCCCC(=O)O)C[C@@H]1OC[C@H](C[C@@H]2O[C@H]2[C@@H](C)[C@H](C)O)[C@@H](O)[C@H]1O [mupirocin, reference compound] |  |  | 0.125 (≈ 0.25 µM) |  |  |  |  |  |
